Test results published in ChEMBL document CHEMBL3507680, “University of Dundee, Gates Library screen for HepG2 cell viability”.

assay: Human HepG2 cell viability assay in 384 well format; assay type: toxicity, cell-based; design: dose 125 nL, time 70.5 hour; cytotoxicity at 70.5 h: concentration not given beside the values; details: HepG2 cells, read-out: Inhibition

Structure (SMILES) | cytotoxicity at 70.5 h [%]
CCc1nnc(CN2CCC(N3CCN(CC)C3=O)CC2)o1 | -16.5
Cc1nc(CN2CCN(C(=O)c3sccc3C)CC2)cs1 | -11.5
COc1ccc(CCC(=O)N2CCCCC2Cn2cccn2)cc1F (stereo not drawn) | -7.2
CCCn1[nH]cc/c1=N\C(=O)CN1CCc2cnc(C(C)C)nc2C1 | -3.5
CC(Cn1cccn1)NC(=O)NCc1ccc(S(C)(=O)=O)cc1 (stereo not drawn) | 11.7
COc1ccc(C(=O)N(C)Cc2nnc3ccccn23)c(OC)c1OC | -11.4
Cn1ccnc1CN1CCN(CC(O)c2ccc(F)cc2)CC1 (stereo not drawn) | -3.86
Nc1nc(CN2CCOC(Cn3cccn3)C2)nc2ccccc12 (stereo not drawn) | -11.8
CC(=O)Nc1nc(CN2CCOC(Cn3cccn3)C2)cs1 (stereo not drawn) | -5.08
Cc1ccc(C(=O)NC2CCN(C(=O)NCc3ccccn3)CC2)o1 | -8.93
CCN1CCN(C2CCN(Cc3nnc(C4CC4)o3)CC2)C1=O | 12.8
Cc1cnn(CC2CCCN2C(=O)c2n[nH]c(=O)c3ccccc23)c1 (stereo not drawn) | -7.98
O=C(CCc1ccc(F)c(F)c1)N1CCCCC1Cn1cccn1 (stereo not drawn) | -7.69
O=C(CCc1ccsc1)N1CCCCC1Cn1cccn1 (stereo not drawn) | -9.96
CC(C)c1ccc(C(O)CN2CCN(Cc3nccn3C)CC2)cc1 (stereo not drawn) | -3.6
CN(Cc1ccc(-n2cccn2)cc1)CC1CCCN1c1cccnn1 (stereo not drawn) | -10.7
CCc1n[nH]c(C2CN(C(=O)c3ccc4c(c3)CCCC4)CCO2)n1 (stereo not drawn) | -8.34
CCc1n[nH]c(C2CN(C(=O)c3ccc4c(c3)CCC4)CCO2)n1 (stereo not drawn) | -2.27
Cc1cnn(CC2CN(Cc3nc4ccccc4c(=O)[nH]3)CCO2)c1 (stereo not drawn) | -4.67
Cc1cnn(CC2CN(CCCc3nc4ccccc4o3)CCO2)c1 (stereo not drawn) | -0.695

Structure (SMILES) | cytotoxicity at 70.5 h [%]
O=C(NCCn1ccnc1)NCC(c1ccco1)N1CCCC1 (stereo not drawn) | 9.47
Cc1cnn(CC2CCCN2C(=O)c2csc(C(C)C)n2)c1 (stereo not drawn) | 17.5
O=C(CNCCn1cccn1)NCC1(c2ccccc2)CCCC1 | 0.609
O=C(CNCCn1cccn1)NCC1(c2ccccc2)CCOCC1 | -7.33
c1ccc2oc(CCCN3CCOC(Cn4cncn4)C3)nc2c1 (stereo not drawn) | 14.6
O=C(NCCNc1ccc(C(F)(F)F)cn1)c1ccc(Br)cc1 | 1.55
O=C(NCCNc1ccc(C(F)(F)F)cn1)c1ccc(F)cc1Cl | -3.01
O=C(NCCNc1ccc(C(F)(F)F)cn1)c1ccc(Cl)cc1F | 1.38
CCn1cc(NC(=O)NCCN2CCc3ccccc3C2)cn1 | 4.14
CCN1CC(C(=O)NCc2cccnc2-n2cccn2)CC1=O (stereo not drawn) | -7.76
O=C(CCn1cncn1)NCC(c1ccco1)N1CCCC1 (stereo not drawn) | -4.48
O=C(CCc1ccsc1)N1CCC(N2CCNC2=O)CC1 | 3.98
CCc1nc(C2CCCN(C(=O)c3ccc(F)cc3)C2)no1 (stereo not drawn) | -0.043
Cc1nc2c(c(C)c1CC(=O)NCc1ccccc1F)c(=O)[nH]n2C | -7.35
Cc1nc2c(c(C)c1CC(=O)NCc1cccs1)c(=O)[nH]n2C | -1.43
Cc1cnn(CC2CCCN2C(=O)c2csc(C3CC3)n2)c1 (stereo not drawn) | -0.994
CCc1nc(C2CCCN(C(=O)c3ccc(O)nc3)C2)no1 (stereo not drawn) | 3.29
CCc1nc(C2CCCN(C(=O)NCCOC)C2)no1 (stereo not drawn) | 21.2
CCn1c(C)nnc1CN(C)C1CCN(CC2CCC2)C1 (stereo not drawn) | 26.1
COc1ccsc1C(=O)N1CCCN(Cc2cscn2)CC1 | -5.36

Structure (SMILES) | cytotoxicity at 70.5 h [%]
CC(=O)N(Cc1ncc(C)o1)C1CCN(Cc2ccccc2F)C1 (stereo not drawn) | -2.68
CC(CNC(=O)Nc1cn[nH]c1)N1CCCC1 (stereo not drawn) | 2.24
Cc1nc(C)n(CC2CCCN(CC3CCCCC3)C2)n1 (stereo not drawn) | -1.64
COc1ccnc(N2CCN(C(=O)Cc3ccn(C(C)C)n3)CC2)n1 | -5.11
Cc1ccsc1C(=O)N1CCCN(Cc2cscn2)CC1 | -2.76
CCc1nc(C2CCCN(C(=O)c3c(C)noc3C)C2)no1 (stereo not drawn) | 20.6
Cc1nc(C)n(CC2CCCN2CCC(=O)N2CCCCC2)n1 (stereo not drawn) | -5.35
Cc1nc(C)n(CC2CCCN(CC(=O)N3CCCC3)C2)n1 (stereo not drawn) | -4.82
O=C(NCC(c1ccccc1)N1CCOCC1)Nc1cn[nH]c1 (stereo not drawn) | 1.36
COc1ccnc(N2CCN(C(=O)Cc3csc(C)n3)CC2)n1 | 1.2
Cc1nnc(C2Cc3ccccc3CN2Cc2nc(C(C)C)no2)o1 (stereo not drawn) | 1.77
CCn1cnnc1CNC(=O)N1CCN(C(C)C)CC1 | 26
Cc1nc(C)n(CC2CCCN(CCC(=O)NC3CCCCC3)C2)n1 (stereo not drawn) | -3.01
COc1ccc(CC(=O)N2CCCCC2Cn2cc(C)cn2)cc1F (stereo not drawn) | 2.82
O=C(c1sccc1C1CC1)N1CCCN(Cc2cscn2)CC1 | -0.238
COc1ccc(CC(=O)N2CCCC2Cn2cc(C)cn2)c(OC)c1 (stereo not drawn) | -0.475
Cc1cnn(CC2CCCN2C(=O)CCc2ccc3c(c2)OCO3)c1 (stereo not drawn) | 20.8
CCc1ncncc1C(=O)NC1CCc2nc(C)cn2C1 (stereo not drawn) | -1.22
